“And” between values parts separate entries of the source, which are not always exact repeats. Identical values can stand only once.
Each molecule was assayed against T1, receptor interacting protein kinase 1 (GST-hRIPK1 (8-327)) (Homo sapiens, UniProt Q13546) (assay: Fluorescent Polarization Binding (FP Binding) assay). Settings: 10 nM GST-hRIPK1 (8-327), 5 nM fluorescent-labeled ligand, 30 min at RT.
T1 construct: GST-hRIPK1 (8-327) enzyme was generated by Proteros GmbH by Baculovirus expression system
T1 sequence (Q13546 8-327): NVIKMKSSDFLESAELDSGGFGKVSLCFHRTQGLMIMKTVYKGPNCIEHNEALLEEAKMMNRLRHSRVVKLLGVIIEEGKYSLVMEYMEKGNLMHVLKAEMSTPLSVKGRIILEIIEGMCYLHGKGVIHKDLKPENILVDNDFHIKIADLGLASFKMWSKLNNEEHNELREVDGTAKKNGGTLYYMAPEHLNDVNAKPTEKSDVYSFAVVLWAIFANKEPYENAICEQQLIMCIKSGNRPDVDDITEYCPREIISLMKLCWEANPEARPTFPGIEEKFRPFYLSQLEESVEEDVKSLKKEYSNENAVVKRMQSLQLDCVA
How it was run: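 Displacement of 5 nM fluorescent ligand from 10 nM GST-hRIPK1 (8-327), 30 min at room temperature in pH 7.5 HEPES buffer, 1% DMSO. Fluorescence polarization read (ex 531/em 595 nm); IC50 fitted from percent inhibition and averaged over at least two independent experiments.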
For `CC(C)(C)C(=O)N1OCC[C@H]1c1ccc(F)c(C#N)c1` [Compound 153, 5-[(3S)-2-(2,2-dimethylpropanoyl)-1,2-oxazolidin-3-yl]-2-fluorobenzonitrile], the IC50 was under 1 µM. `CC(C(=O)N1OCC[C@H]1c1ccc(C#N)cc1)C(F)(F)F` (single isomer, unassigned) [Compound 180] gave an IC50 of under 1 µM. `CC(C)(C)C(=O)N1OCC[C@H]1c1cn2ccccc2n1` [Compound 111, 1-(3S)-3-{imidazo[1,2-A]pyridin-2-yl}-1,2-oxazolidin-2-yl-2,2-dimethylpropan-1-one] was tested, and the IC50 was 1 to 10 µM. For `CC(C)(C)C(=O)N1OCC[C@H]1c1cc[nH]n1` [Compound 190, 2,2-dimethyl-1-[(3S)-3-(1H-pyrazol-5-yl)-1,2-oxazolidin-2-yl]propan-1-one], the IC50 was under 1 µM. Work on `CC(C)(C)C(=O)N1OCC[C@H]1c1cccc(F)c1F` [Compound 31, 1-[(3S)-3-(2,3-Difluorophenyl)-1,2-oxazolidin-2-yl]-2,2-dimethylpropan-1-one] yielded an IC50 of under 1 µM. In the case of `CC(C)(CO)C(=O)N1OCC[C@H]1c1ccc(F)cc1` [Compound 96, 1-[(3S)-3-(4-fluorophenyl)-1,2-oxazolidin-2-yl]-3-hydroxy-2,2-dimethylpropan-1-one], the IC50 is reported as under 1 µM. Work on `CC(C(=O)N1OCC[C@H]1c1ccc(F)cc1)C(F)F` (single isomer, unassigned) [Compound 189] yielded an IC50 of under 1 µM. With `CC(C)(C)C(=O)N1OCC[C@H]1c1ccc(F)nc1` (single isomer, unassigned) [Compound 61] the IC50 was < 1 µM and 0.028 µM. With `CC(C)(COC(F)(F)F)C(=O)N1OCC[C@H]1c1ccc(F)cc1` [Compound 176, 1-[(3S)-3-(4-fluorophenyl)-1,2-oxazolidin-2-yl]-2,2-dimethyl-3-(trifluoromethoxy) propan-1-one] the IC50 was under 1 µM. `O=C(C1CCO1)N1OCC[C@H]1c1ccccc1` (single isomer, unassigned) [Compound 52] showed an IC50 of over 10 µM. For `CC(C)(C)C(=O)N1OCC[C@H]1c1cc(F)cc(C#N)c1` (single isomer, unassigned) [Compound 109], the IC50 was < 1 µM and 0.007 µM. `CC1(C(=O)N2OCC[C@H]2c2ccc(F)cc2)CCOC1` (single isomer, unassigned) [Compound 40] showed an IC50 of under 1 µM. `Cn1cc([C@@H]2CCON2C(=O)C(C)(C)C)cc1C#N` [Compound 205, 4-[(3S)-2-(2,2-dimethylpropanoyl)-1,2-oxazolidin-3-yl]-1-methyl-1 h-pyrrole-2-carbonitrile] was tested, and the IC50 was under 1 µM. For `CC(C)(C)C(=O)N1OCC[C@H]1c1ccn2ccnc2c1` [Compound 110, 1-[(3S)-3-{imidazo[1,2-A]pyridin-7-yl}-1-oxazolidin-2-yl]-2,2-dimethylpropan-1-one], the IC50 was under 1 µM. For `Cc1ccc([C@@H]2CCON2C(=O)C(C)(C)C(F)F)cn1` [Compound 202, 3,3-difluoro-2,2-dimethyl-1-[(3S)-3-(6-methylpyridin-3-yl)-1,2-oxazolidin-2-yl]propan-1-one], the IC50 was under 1 µM. In the case of `CC(C)C(=O)N1OCC[C@@H]1c1ccc(F)cc1` [Compound 65, 1-[(3R)-3-(4-Fluorophenyl)-1,2-oxazolidin-2-yl]-2-methylpropan-1-one], the IC50 is reported as over 10 µM. `CC(C)(COC(F)F)C(=O)N1OCC[C@H]1c1ccc(C#N)cc1` [Compound 154, 4-[(3S)-2-[3-(difluoromethoxy)-2,2-dimethylpropanoyl]-1,2-oxazolidin-3-yl]benzonitrile] gave an IC50 of under 1 µM. `Cc1cnc([C@@H]2CCON2C(=O)C(C)C(F)(F)F)cn1` (single isomer, unassigned) [Compound 129] showed an IC50 of under 1 µM. `N#Cc1ccc([C@@H]2CCON2C(=O)C2(C3CC3)CC2)cc1` [Compound 158, 4-[(3S)-2-(1-cyclopropylcyclopro-panecarbonyl)-1,2-oxazolidin-3-yl]benzonitrile] was tested, and the IC50 was under 1 µM. With `CC(CC(F)F)C(=O)N1OCC[C@H]1c1ccc(C#N)cc1` (single isomer, unassigned) [Compound 232] the IC50 was under 1 µM. `O=C(C1CCO1)N1OCC[C@H]1c1ccccc1` (single isomer, unassigned) [Compound 53] showed an IC50 of 1 to 10 µM. `CC(C)(C)C(=O)N1OCC[C@@H]1c1cccc(F)c1` [Compound 82, (R)-1-(3-(3-fluorophenyl)isoxazolidin-2-yl)-2,2-dimethylpropan-1-one] showed an IC50 of 1 to 10 µM. Molecule `CC(C)S(=O)(=O)N1OCC[C@H]1c1cncc(C#N)c1` [Compound 225, 5-[(3S)-2-(propane-2-sulfonyl)-1,2-oxazolidin-3-yl]pyridine-3-carbonitrile] has an IC50 of 1 to 10 µM. In the case of `CC1(C(=O)N2OCC[C@H]2c2ccc(F)cc2)CCCOC1` (single isomer, unassigned) [Compound 35], the IC50 is reported as under 1 µM. `O=C(N1OCC[C@H]1c1ccc(F)cc1)C1(F)CC1` [Compound 34, (3S)-2-(1-Fluorocyclopropane-carbonyl)-3-(4-fluorophenyl)-1,2-oxazolidine] was tested, and the IC50 was under 1 µM. Work on `CC1(C(=O)N2OCC[C@H]2c2ccc(F)nc2)CCOC1` (single isomer, unassigned) [Compound 141] yielded an IC50 of under 1 µM. For `CC(C)(C)C(=O)N1OCC[C@H]1c1ccc(C2CC2)nc1` [Compound 148, 1-[(3S)-3-(6-cyclopropylpyridin-3-yl)-1,2-oxazolidin-2-yl]-2,2-dimethylpropan-1-one], the IC50 was under 1 µM. Work on `CC1(C(=O)N2OCC[C@H]2c2ccc(F)cc2)CC(F)(F)C1` [Compound 155, (3S)-2-(3,3-difluoro-1-methylcyclobutane-carbonyl)-3-(4-fluorophenyl)-1,2-oxazolidine] yielded an IC50 of under 1 µM. `O=C(N1OCC[C@H]1c1ccc(F)nc1)C1(C(F)F)CCC1` [Compound 168, 5-[(3S)-2-[1-(difluoromethyl)cyclo-butanecarbonyl]-1,2-oxazolidin-3-yl]-2-fluoropyridine] was tested, and the IC50 was under 1 µM. Work on `CC(C(=O)N1OCC[C@H]1c1ccc(F)nc1)C(F)(F)F` (single isomer, unassigned) [Compound 163] yielded an IC50 of under 1 µM. `CC(C)(C)C(=O)N1OCC[C@H]1c1cccc(C#N)c1` [Compound 147, 3-[(3S)-2-(2,2-dimethylpropanoyl)-1,2-oxazolidin-3-yl]benzonitrile] was tested, and the IC50 was under 1 µM. `CC1(C(=O)N2OCC[C@H]2c2ccc(F)cc2)CC1(F)F` (single isomer, unassigned) [Compound 114] showed an IC50 of under 1 µM. Work on `CC(C)(C)C(=O)N1OCC[C@H]1c1ccc(F)cn1` [Compound 127, 1-[(3S)-3-(5-fluoropyridin-2-yl)-1,2-oxazolidin-2-yl]-2,2-dimethylpropan-1-one] yielded an IC50 of under 1 µM. Work on `CC(C)(C)C(=O)N1OCC[C@H]1c1ccc(C(F)(F)F)nc1` [Compound 120] yielded an IC50 of under 1 µM. In the case of `COc1ccc([C@@H]2CCON2C(=O)C(C)(C)C)cn1` [Compound 145, 1-[(3S)-3-(6-methoxypyridin-3-yl)-1,2-oxazolidin-2-yl]-2,2-dimethylpropan-1-one], the IC50 is reported as under 1 µM. In the case of `CC1CC1C(=O)N1OCC[C@H]1c1ccc(C#N)cc1` (single isomer, unassigned) [Compound 215], the IC50 is reported as under 1 µM. In the case of `CC1(C(=O)N2OCC[C@H]2c2ccc(F)c(F)c2)CCOC1` (single isomer, unassigned) [Compound 211], the IC50 is reported as under 1 µM. For `CC(C)(C)C(=O)N1OCC[C@H]1c1ncc(Cl)cc1F` [Compound 121, 1-[(3S)-3-(5-chloro-3-fluoropyridin-2-yl)-1,2-oxazolidin-2-yl]-2,2-dimethylpropan-1-one], the IC50 was under 1 µM. Molecule `O=C(C(C1CC1)C1CC1)N1OCC[C@H]1c1ccc(F)nc1` [Compound 167, 2,2-dicyclopropyl-1-[(3S)-3-(6-fluoropyridin-3-yl)-1,2-oxazolidin-2-yl]ethan-1-one] has an IC50 of under 1 µM.
